Measured values as given in the CheMixHub viscosity set.

Experiment: xn = mol fraction of the nth substance listed

CCC(=O)OC + c1ccccc1
viscosity [mPa·s]
Settings	298.15 K	308.15 K	313.15 K	318.15 K
101 kPa, x2 = 0.1014	0.435	–	0.373	–
101 kPa, x2 = 0.1972	0.444	–	0.38	–
101 kPa, x2 = 0.3002	0.453	–	0.387	–
101 kPa, x2 = 0.3996	0.466	–	0.397	–
101 kPa, x2 = 0.5012	0.48	–	0.407	–
101 kPa, x2 = 0.6036	0.496	–	0.419	–
101 kPa, x2 = 0.6961	0.513	–	0.43	–
101 kPa, x2 = 0.8009	0.536	–	0.447	–
101 kPa, x2 = 0.898	0.561	–	0.465	–
101.3 kPa, x1 = 0.0415	–	0.53	–	0.466
101.3 kPa, x1 = 0.1037	–	0.52	–	0.461
101.3 kPa, x1 = 0.2041	–	0.505	–	0.453
101.3 kPa, x1 = 0.3026	–	0.492	–	0.446
101.3 kPa, x1 = 0.4053	–	0.48	–	0.44
101.3 kPa, x1 = 0.4569	–	0.474	–	0.437
101.3 kPa, x1 = 0.6013	–	0.462	–	0.43
101.3 kPa, x1 = 0.7026	–	0.453	–	0.425
101.3 kPa, x1 = 0.8018	–	0.447	–	0.43
101.3 kPa, x1 = 0.9039	–	0.441	–	0.418
101.3 kPa, x1 = 0.9674	–	0.438	–	0.417

CCCOCCO + OCCOCCOCCOCCO
101 kPa
Settings	viscosity [mPa·s]
293.15 K, x1 = 0.0542	48.17
293.15 K, x1 = 0.1014	43.86
293.15 K, x1 = 0.201	35.31
293.15 K, x1 = 0.3003	27.79
293.15 K, x1 = 0.3986	21.51
293.15 K, x1 = 0.4476	18.81
293.15 K, x1 = 0.5026	16.04
293.15 K, x1 = 0.5513	13.99
293.15 K, x1 = 0.6093	11.77
293.15 K, x1 = 0.6955	9.005
293.15 K, x1 = 0.8069	6.17
293.15 K, x1 = 0.8986	4.294
293.15 K, x1 = 0.9299	3.73
298.15 K, x1 = 0.0471	40.86
298.15 K, x1 = 0.1215	35.33
298.15 K, x1 = 0.2008	29.71
298.15 K, x1 = 0.2987	23.76
298.15 K, x1 = 0.4022	18.52
298.15 K, x1 = 0.4601	16.06
298.15 K, x1 = 0.5018	14.48
298.15 K, x1 = 0.5507	12.73
298.15 K, x1 = 0.5961	11.26
298.15 K, x1 = 0.6975	8.355
298.15 K, x1 = 0.7954	5.941
298.15 K, x1 = 0.9023	3.732
298.15 K, x1 = 0.947	2.996
303.15 K, x1 = 0.0564	32.24
303.15 K, x1 = 0.1139	28.91
303.15 K, x1 = 0.2071	23.96
303.15 K, x1 = 0.304	19.47
303.15 K, x1 = 0.3911	15.98
303.15 K, x1 = 0.4512	13.87
303.15 K, x1 = 0.5003	12.29
303.15 K, x1 = 0.5411	11.08
303.15 K, x1 = 0.5977	9.543
303.15 K, x1 = 0.7007	7.098
303.15 K, x1 = 0.794	5.232
303.15 K, x1 = 0.8948	3.54
303.15 K, x1 = 0.9402	2.883

CCCOCCO + OCCOCCO
101 kPa
Settings	viscosity [mPa·s]
293.15 K, x1 = 0.0522	34.91
293.15 K, x1 = 0.1049	31.33
293.15 K, x1 = 0.2035	25.38
293.15 K, x1 = 0.2926	20.65
293.15 K, x1 = 0.3996	15.84
293.15 K, x1 = 0.4555	13.73
293.15 K, x1 = 0.4975	12.32
293.15 K, x1 = 0.5488	10.8
293.15 K, x1 = 0.5924	9.666
293.15 K, x1 = 0.7043	7.291
293.15 K, x1 = 0.7921	5.699
293.15 K, x1 = 0.9015	3.905
293.15 K, x1 = 0.9536	3.147
298.15 K, x1 = 0.053	26.82
298.15 K, x1 = 0.1014	24.15
298.15 K, x1 = 0.1985	19.48
298.15 K, x1 = 0.3104	15.16
298.15 K, x1 = 0.4057	12.25
298.15 K, x1 = 0.4511	11.07
298.15 K, x1 = 0.4975	9.977
298.15 K, x1 = 0.5511	8.842
298.15 K, x1 = 0.6049	7.816
298.15 K, x1 = 0.6981	6.239
298.15 K, x1 = 0.8017	4.717
298.15 K, x1 = 0.89	3.562
298.15 K, x1 = 0.9483	2.89
303.15 K, x1 = 0.0608	19.27
303.15 K, x1 = 0.1099	17.35
303.15 K, x1 = 0.1927	14.48
303.15 K, x1 = 0.3017	11.38
303.15 K, x1 = 0.3982	9.174
303.15 K, x1 = 0.4498	8.171
303.15 K, x1 = 0.4916	7.433
303.15 K, x1 = 0.5511	6.487
303.15 K, x1 = 0.6073	5.701
303.15 K, x1 = 0.7083	4.5
303.15 K, x1 = 0.7941	3.671
303.15 K, x1 = 0.9072	2.776
303.15 K, x1 = 0.9353	2.579
